Experimental data: ChEMBL document CHEMBL5154745, “Synthesis and antiviral activities of quinazolinamine-coumarin conjugates toward chikungunya and hepatitis C viruses” (Eur J Med Chem, 2022)

Legend:
Chikungunya virus [1] = assay: Antiviral activity against CHIKV 899 infected in African green monkey Vero cells measured after 7 days; format: functional, organism-based; settings: Chikungunya virus, 899, Vero, 168 h
[2] = Selectivity index, ratio of CC50 for cytotoxicity against human cells over EC50 for antiviral activity against CHIKV 899 infected in African green monkey Vero cells; format: toxicity, cell-based; settings: read-out: Ratio CC50/EC50
[3] = Cytotoxicity against human HEL cells measured after 3 days by coulter counting method; format: toxicity, cell-based; settings: time 3 day
[4] = Lipophilicity, log P of the compound; format: physicochemical; settings: octanol/water
Hepatitis C virus = assay: Antiviral activity against HCV infected in human Huh-5-2 cells assessed as reduction in viral replication measured by Luciferase reporter gene assay; format: functional, organism-based, Hepacivirus hominis
Chikungunya virus [5] = assay: Antiviral activity against CHIKV assessed as inhibition of viral replication; format: functional, organism-based

**Q.** Which EC50 (Chikungunya virus [1]) does the source give for `CC(C)(C)c1ccc2oc(=O)cc(CSc3nc(Nc4cccc5ccccc45)c4ccccc4n3)c2c1` here?
**A.** > 193 µM

**Q.** With `CC(C)(C)c1ccc2oc(=O)cc(CSc3nc(Nc4ccccc4)c4ccccc4n3)c2c1` as the compound, how does the selectivity ratio [2] read?
**A.** 37.2

**Q.** And the CC50 at 72 h [3]?
**A.** 147 µM

**Q.** And the EC50 (Chikungunya virus [1])?
**A.** 3.95 µM

**Q.** What about the logP [4] of the same compound?
**A.** 4.88

**Q.** With `COc1ccc(CNc2nc(S)nc3ccccc23)cc1` as the compound, how does the selectivity ratio [2] read?
**A.** > 1

**Q.** And the CC50 at 72 h [3]?
**A.** > 336 µM

**Q.** What about the EC50 (Chikungunya virus [1]) of the same compound?
**A.** 329 µM

**Q.** For `COc1ccccc1Nc1nc(S)nc2ccccc12`, which selectivity ratio [2] is on record?
**A.** 1.3

**Q.** What about the CC50 at 72 h [3] of the same compound?
**A.** 290 µM

**Q.** And the EC50 (Chikungunya virus [1])?
**A.** 224 µM

**Q.** With `COc1cc2oc(=O)cc(CSc3nc(Nc4ccccc4)c4ccccc4n3)c2cc1OC` as the compound, how does the EC50 (Chikungunya virus [1]) read?
**A.** > 212 µM

**Q.** With `O=c1cc(CSc2nc(Nc3ccccc3)c3ccccc3n2)c2ccc(O)cc2o1` as the compound, how does the EC50 (Chikungunya virus [1]) read?
**A.** > 234 µM

**Q.** With `Cc1ccc(Nc2nc(SCc3cc(=O)oc4ccc(C(C)(C)C)cc34)nc3ccccc23)c(C)c1` as the compound, how does the CC50 at 72 h [3] read?
**A.** 84.6 µM

**Q.** What about the EC50 (Hepatitis C virus) of the same compound?
**A.** 27.9 µM

**Q.** And the EC50 (Chikungunya virus [1])?
**A.** 3.11 µM

**Q.** What about the logP [4] of the same compound?
**A.** 5.03

**Q.** Which results are given for `Cc1cccc(Nc2nc(SCc3cc(=O)oc4ccc(C(C)(C)C)cc34)nc3ccccc23)c1C`?
**A.** selectivity ratio [2]: 10.8; CC50 at 72 h [3]: 150 µM; EC50 (Hepatitis C virus): 16.6 µM; EC50 (Chikungunya virus [1]): 13.9 µM; logP [4]: 5.04

**Q.** Which selectivity ratio [2] does the source give for `Cc1cccc(Nc2nc(S)nc3ccccc23)c1C` here?
**A.** 3.4

**Q.** And the CC50 at 72 h [3]?
**A.** 131 µM

**Q.** And the EC50 (Chikungunya virus [1])?
**A.** 39.1 µM

**Q.** Which results are given for `COc1ccc(CNc2nc(SCc3cc(=O)oc4ccc(C(C)(C)C)cc34)nc3ccccc23)cc1`?
**A.** selectivity ratio [2]: > 1.7; CC50 at 72 h [3]: > 147 µM; EC50 (Chikungunya virus [1]): 85.3 µM

**Q.** Which selectivity ratio [2] does the source give for `CC(C)(C)c1ccc2oc(=O)cc(CSc3nc(Nc4ccncc4)c4ccccc4n3)c2c1` here?
**A.** 8.8

**Q.** And the CC50 at 72 h [3]?
**A.** 17.3 µM

**Q.** What about the EC50 (Chikungunya virus [1]) of the same compound?
**A.** 1.96 µM

**Q.** What about the logP [4] of the same compound?
**A.** 3.93

**Q.** What does the source list for `Sc1nc(Nc2ccccc2)c2ccccc2n1`?
**A.** selectivity ratio [2]: 2.5; CC50 at 72 h [3]: 275 µM; EC50 (Chikungunya virus [1]): 108 µM

**Q.** Which EC50 (Chikungunya virus [1]) does the source give for `Cc1cc(C)nc(Nc2nc(SCc3cc(=O)oc4ccc(C(C)(C)C)cc34)nc3ccccc23)c1` here?
**A.** > 151 µM

**Q.** Which selectivity ratio [2] does the source give for `Sc1nc(Nc2ccncc2)c2ccccc2n1` here?
**A.** 1.1

**Q.** What about the CC50 at 72 h [3] of the same compound?
**A.** 242 µM

**Q.** What about the EC50 (Chikungunya virus [1]) of the same compound?
**A.** 220 µM

**Q.** Which selectivity ratio [2] does the source give for `COc1ccccc1Nc1nc(SCc2cc(=O)oc3ccc(C(C)(C)C)cc23)nc2ccccc12` here?
**A.** 16.8

**Q.** And the CC50 at 72 h [3]?
**A.** 51.9 µM

**Q.** And the EC50 (Chikungunya virus [1])?
**A.** 3.08 µM

**Q.** And the logP [4]?
**A.** 4.76

**Q.** For `Cc1ccc(C(=O)Nc2ccc(S(=O)(=O)O)c3cc(S(=O)(=O)O)cc(S(=O)(=O)O)c23)cc1NC(=O)c1cccc(NC(=O)Nc2cccc(C(=O)Nc3cc(C(=O)Nc4ccc(S(=O)(=O)O)c5cc(S(=O)(=O)O)cc(S(=O)(=O)O)c45)ccc3C)c2)c1` [SURAMIN], which EC50 (Chikungunya virus [5]) is on record?
**A.** 80 µM

**Q.** For `O=c1ccc2ccccc2o1` [COUMARIN], which CC50 at 72 h [3] is on record?
**A.** > 500 µM

**Q.** And the EC50 (Hepatitis C virus)?
**A.** > 150 µM

**Q.** Which EC50 (Chikungunya virus [1]) does the source give for `CC(C)(C)c1ccc2oc(=O)cc(CSc3nc(N(Cc4ccccc4)c4ccccc4)c4ccccc4n3)c2c1` here?
**A.** > 180 µM

**Q.** Which selectivity ratio [2] does the source give for `Sc1nc(Nc2cccc3ccccc23)c2ccccc2n1` here?
**A.** 7.4

**Q.** And the CC50 at 72 h [3]?
**A.** 118 µM

**Q.** And the EC50 (Chikungunya virus [1])?
**A.** 16.1 µM

**Q.** Which selectivity ratio [2] does the source give for `Cc1ccc(Nc2nc(S)nc3ccccc23)c(C)c1` here?
**A.** 2.4

**Q.** What about the CC50 at 72 h [3] of the same compound?
**A.** 142 µM

**Q.** And the EC50 (Chikungunya virus [1])?
**A.** 59.4 µM

**Q.** With `Cc1ccc2oc(=O)cc(CSc3nc(Nc4ccccc4)c4ccccc4n3)c2c1` as the compound, how does the EC50 (Chikungunya virus [1]) read?
**A.** > 47 µM

**Q.** With `Cc1cc(C)nc(Nc2nc(S)nc3ccccc23)c1` as the compound, how does the EC50 (Chikungunya virus [1]) read?
**A.** > 33.2 µM
